Reference: PMC3006138, “Fexinidazole – A New Oral Nitroimidazole Drug Candidate Entering Clinical Development for the Treatment of Sleeping Sickness” (PLoS Neglected Tropical Diseases, 2010)
“Also recorded” adds a separate entry of the source.

Tests used:
[1] = test system: bone marrow polychromatic erythrocytes; experiment: In vivo bone marrow micronucleus test; set-up: species or system mouse
Protocol: Groups of six young adult male Crl:CD-1 (ICR) mice were treated with fexinidazole at two oral doses of 0, 500, 1000, or 2000 mg/kg given 24 h apart, and bone marrows were harvested 24 h after the second dose. Slides of bone marrow cells were prepared, Giemsa stained, and 2000 polychromatic erythrocytes per animal were scored for micronuclei.

[2] = Hepatocyte intrinsic clearance and metabolite profile; format: in vitro ADME, human; conditions: human
Protocol: Fexinidazole was incubated with cryopreserved hepatocytes from male CD-1 mice, male Sprague Dawley rats, male beagle dogs, male cynomolgus monkeys, and from pooled white or African-American human donor samples (purchased commercially), at concentrations of 1 µM and 10 µM. […] The incubated samples were analyzed by LC-MS after extraction into acetonitrile.
Fexinidazole sulfoxide, lot 1106-I-0170, 99.3% purity, and fexinidazole sulfone, lot 1106-I-0171, 99.9% purity, were provided by the Sponsor.
Cryopreserved hepatocytes of five single donors, lots EHI, REL, KSE […]
ZIJ and MRS, were purchased from In Vitro Technologies Inc (Baltimore, Maryland, USA).
The certificates of analysis are reported in Appendix 1.
Reagents and solvents were of analytical grade and obtained from Sigma-Aldrich (St. Louis, […]
7.5. In Vitro Incubations
On the day of the experiment a 10 mM stock solution of fexinidazole in DMSO was prepared and, within 3 hours, aliquots of this freshly prepared solution, after suitable dilution, were added to the incubation matrix, to reach fexinidazole final concentrations of 1 and 10 µM. The final percentage of DMSO was 0.01% in the incubation samples for the […]
The cryopreserved hepatocytes were thawed according to the supplier’s procedure and the number of viable cells was determined using the Trypan Blue exclusion method. Viabilities were 92% for lot EHI, 89% for lot REL, 82% for lot KSE, 86% for lot ZIJ and 86% for lot MRS in the intrinsic clearance study. In the metabolite profile study viabilities were 91% for lot EHI, 90% for lot REL, 85% for lot KSE, 84% for lot ZIJ and 87% for lot MRS.
Afterwards, the same amount of viable cells for each donor were pooled and used for the incubations of fexinidazole.
7.5.1. Intrinsic Clearance Study […]
µM with pooled human hepatocytes (1 million cells/mL) in a final incubation volume of 1 mL Leibovitz L-15 medium, at 37°C. Incubations were performed in duplicate in a 48-well plate under shaking. Sampling was performed using an automatic liquid handling system (Multiprobe II EX, Packard). At 0, 1, 5, 10, 15, 20, 30, 60 and 120 minutes, 50 µL aliquots of the incubates were taken, then 80 µL of ice-cold acetonitrile and 20 µL of 1 µM warfarin in acetonitrile (internal standard) were added, and samples centrifuged at 2000 rpm for 20 min. The supernatant was analyzed by LC-MS/MS. […]
The chemical stability of fexinidazole was checked by incubating the compound at 37°C in the medium alone at t = 0 and 120 minutes.
For the determination of phase I and phase II activities of hepatocytes, 7-ethoxycoumarin (7-ETC) 1 µM, and 7-hydroxycoumarin (7-HC) 30 µM were used as positive controls and incubated under the same conditions as fexinidazole. Aliquots of incubates were taken at 0, 1, 5, 10, 15, 20, 30, 60 and 120 minutes and processed as fexinidazole samples.
7.5.2. Metabolite Profile Study
For metabolite profiling, fexinidazole was incubated at a concentration of 10 µM with pooled human hepatocytes (1 million cells/mL) in a final incubation volume of 2 mL Leibovitz L-15 medium, at 37°C. Aliquots of the incubation samples were taken at t = 0, 30 and 120 minutes; the metabolism was stopped by the addition of an equal volume of cold acetonitrile and the samples centrifuged at 1100 rpm for 20 min. The supernatant was stored at -20°C until analysis. Control incubations were performed with the compound in the medium alone for 120 minutes.
7.6. Analysis of the Samples of Intrinsic Clearance Study
The analysis of the samples for intrinsic clearance determination was performed by an LC-MS/MS method, using the following conditions:
HPLC Equipment and Conditions
HPLC system 1100 binary pump (Agilent, Palo Alto, USA)
Autosampler 2777 (Waters)
Analytical column Guard Column SB-C8 4.6 x 12.5 mm, 5 µm (Zorbax)
Column temperature ambient
Mobile phase A 10 mM ammonium formate pH 4.0: acetonitrile (95:5, v:v)
Mobile phase B 10 mM ammonium formate pH 4.0: acetonitrile (5:95, v:v) […]
Gradient conditions Step Total time (min) flow (µL/min) %A % B […]

[3] = Irwin's test of general behaviour and body temperature; format: in vivo, rat
Protocol: Neurobehavioural safety was carried out using the Irwin's test of general behaviour and body temperature in male rats, [41]. […] General behaviour was assessed before treatment and 2 h and 24 h after vehicle or drug administration. A defined set of behavioural observations using an arbitrary intensity scale of 0 (no behavioural change) to 8 was made before treatment and 2 h and 24 h after treatment. Factors present in normal animals (e.g. alertness, mobility) were scored as 4; potentiation or depression of these factors was indicated as higher or lower integers, respectively. Factors absent in normal animals were scored from 0 (normal) to 8.
Exp. Treatment(a) Dose Number of Session (mg/kg) Animals/Group
(a) Three animals/group were dosed each day of study.
6.3.2. Allocation/Randomization
The animals were selected and distributed into experimental groups using random number tables (Fisher and Yates).
6.3.3. Dose Administration
Route and Method Oral, gastric gavage
Dosage volumes were adjusted to the individual animal body weights recorded on the day of […]
6.3.4. Dose Justification
In this study, the top dose of […]
dose went from 500 to 1000 mg/kg/day.
6.4. Experimental procedure
6.4.1. Behavioral observations
Behavior of the animals was assessed before treatment, 2 hours and 24 hours after treatment.
After treatment, animals were put in their home cages. Observation was performed in 5 steps:
• Home cage observations: piloerection, bizarre behavior, exophthalmus, respiration, tremors, twitches, convulsions
Nerviano Medical Sciences

Question: Which results are given for CSc1ccc(OCc2ncc([N+](=O)[O-])n2C)cc1 [Fexinidazole, 1-methyl-2-((p-(methylthio)phenoxy)methyl)-5-nitroimidazole]?
Answer: Micronucleated PCE/1000 ([1]; 500 mg/kg po ×2): 1.4; PCE/NCE ([1]; 500 mg/kg po ×2): 0.82; Micronucleated PCE/1000 ([1]; 1000 mg/kg po ×2): 1.1; PCE/NCE ([1]; 1000 mg/kg po ×2): 0.75; Micronucleated PCE/1000 ([1]; 2000 mg/kg po ×2): 1.8; PCE/NCE ([1]; 2000 mg/kg po ×2): 0.89; in vivo micronucleus test result ([1]; oral doses up to 2 g/kg): confirmed the lack of clastogenicity; half-life at 1 µM [2]: 6.5 min; CLint scaled at 1 µM ([2]; read-out: CLint in vitro): 257 mL/min/kg; hepatocyte CLint at 1 µM ([2]; read-out: CLint in vitro): 107 µL/min/1e6 cells; Body temperature ([3]; 100 mg/kg, 2 hours): 38.3 ± 0.3 °C; Body temperature ([3]; 100 mg/kg, 24 hours): 38.2 ± 0.3 °C; Body temperature ([3]; 300 mg/kg, 2 hours): 38.1 ± 0.5 °C; Body temperature ([3]; 300 mg/kg, 24 hours): 37.9 ± 0.6 °C; Body temperature ([3]; 1000 mg/kg, 2 hours): 38.3 ± 0.3 °C; Body temperature ([3]; 1000 mg/kg, 24 hours): 38.1 ± 0.3 °C; effects on general behaviour and body temperature ([3]; 100, 300 or 1000 mg/kg po): no meaningful effects; also recorded: no effects were observed; No-Observed-Effect-Level on general behavior and body temperature ([3]; single oral dose): ≥ 1000 mg/kg
